Reference: US7977375B2, “Antibiotic and method of production thereof” (Helmholtz-Zentrum Für Infektionsforschung GmbH, priority 2004, dated 2011)
≈ marks a conversion by molar mass, not a printed value.

What was measured:
[1] = test system: S. aureus DSMZ 1104; assay: agar diffusion method, inhibition zone; type: cell-based, Staphylococcus aureus; conditions: Staphylococcus aureus, DSMZ1104; S. aureus DSMZ 1104; MH agar, 18 hours at 37° C.; per disk 10 μl crude extract, 50 μg macrolactin, 78 μg erythromycin, 30 μg vancomycin, 10 μg ampicillin
Experimental: (§1) The agar diffusion method employing Mueller-Hinton (MH) agar (Difco Laboratories) was used to determine effectiveness against bacteria and yeasts. Sterile paper disks (Schleicher & Schüell, Germany) were seeded with 10 μl crude extract or with a solution of purified macrolactin (final compound concentration on the disk 50 μg) and then placed on the surface of MH-agar plates that had been seeded beforehand with a suspension of overnight culture of the test microorganisms at a concentration of 10^5 cells/ml.

[2] = test system: S. aureus # (own collection, methicillin-sensitive control strain); assay: agar diffusion method, inhibition zone; type: cell-based, Staphylococcus aureus; conditions: Staphylococcus aureus; S. aureus # own collection; MH agar, 18 hours at 37° C.; per disk 10 μl crude extract, 50 μg macrolactin, 78 μg erythromycin, 30 μg vancomycin, 10 μg ampicillin
Experimental: as §1

[3] = test system: MRSA 2 (methicillin-resistant S. aureus, clinical isolate); assay: agar diffusion method, inhibition zone; type: cell-based, Staphylococcus aureus; conditions: Staphylococcus aureus; MRSA 2; MH agar, 18 hours at 37° C.; per disk 10 μl crude extract, 50 μg macrolactin, 78 μg erythromycin, 30 μg vancomycin, 10 μg ampicillin
Experimental: as §1

[4] = test system: MRSA 3 (methicillin-resistant S. aureus, clinical isolate); assay: agar diffusion method, inhibition zone; type: cell-based, Staphylococcus aureus; conditions: Staphylococcus aureus; MRSA 3; MH agar, 18 hours at 37° C.; per disk 10 μl crude extract, 50 μg macrolactin, 78 μg erythromycin, 30 μg vancomycin, 10 μg ampicillin
Experimental: as §1

[5] = test system: S. aureus MRSA 3; assay: electron microscopy of cell division (FIG. 2); type: cell-based, Staphylococcus aureus; conditions: 16 μg/ml, 4 hours shake culture
Experimental: FIGS. 2 a), b) and c) are electron microscope photographs of S. aureus MRSA 3 after 4 hours growth without antibiotic and d), e) and f) in the presence of 16 μg/ml 7-O-malonyl macrolactin A;
It is thought that 7-O-malonyl macrolactin A inhibits the division of bacterial cells, which interrupts the proliferation thereof.
7-O-malonyl macrolactin A influences cell division in MRSA 3, which is evident from the altered division planes. […] The large black arrowheads (FIGS. 2e) and f)) indicate the division planes, while the small black arrowheads indicate an asymmetrical initiation of cell division.

[6] = test system: Candida krusei DSMZ6128; assay: kinetics of growth (FIG. 1E); type: cell-based; conditions: C. krusei; 128 μg/ml
Source text: • FIG. 1A y-axis: Log CFU (Colony Forming Units) Cells/ml • x-axis: Time (HRS) • FIG. 1B y-axis: Log CFU (Colony Forming Units) Cells/ml • x-axis: Time (HRS) • FIG. 1C: y-axis: Log CFU (Colony Forming Units) Cells/ml • x-axis: Time (HRS) • FIG. 1D: y-axis: Log CFU (Colony Forming Units) Cells/ml • x-axis: Time (HRS) • FIG. 1E: y-axis: Log CFU (Colony Forming Units) Cells/ml • x-axis: Time (HRS) • FIG. 1F: y-axis: Log CFU (Colony Forming Units) Cells/ml • x-axis: Time (HRS) • FIG. 5A: y-axis: % Inhibition • x-axis Concentration μg/ml • FIG. 5B: y-axis: % Inhibition • x-axis Concentration μg/ml

[7] = test system: human epithelial cell line HeLa; assay: inhibition of proliferation, CyQUANT cell proliferation test; type: cell-based
Experimental: The cytotoxicity of 7-O-malonyl macrolactin A was compared to that of 7-O-succinyl macrolactin A and macrolactin A in vitro with respect to the inhibition of the proliferation of L929 mouse fibroblast cells or the human epithelial cell line HeLa.
For the cell culture, the HeLa cells were cultivated in low-glucose DMEM medium (Gibco), and the L929 cells in high-glucose DMEM medium. Both were supplemented with 10% by volume foetal calf serum (Gibco) at 37° C. in an atmosphere containing 5% CO2. The cells were extracted from stock cultures by means of trypsinization with EDTA (HeLa) or without EDTA (L929), then counted and diluted to 2×10^5 cells/ml. For the tests, microtitre plates (Nunc.) comprising 96 depressions were plated out in serial dilution without or in the presence of the test compounds or methanol. Determination of morphological alterations of the cells was carried out by means of phase contrast microscopy after 1, 2 and 5 days incubation.
After 5 days cultivation, cell counts were determined by the CyQUANT cell proliferation test (Molecular Probes), which is a highly sensitive microtitre plate test based on fluorescence. The test employs the dye CyQUANT, which, by binding to cellular nucleic acids, enhances fluorescence, which can then be measured by fluorescein excitation. The emission of fluorescence by the dye-nucleic acid complex correlated linearly with the cell count. For test purposes, the residue was carefully removed after 5 days incubation, the cells washed with PBS (phosphate buffered saline solution), the buffer removed and the cells frozen at −80° C. For the test, the cells were thawed at ambient temperature and lysated in a buffered solution containing the dye CyQUANT, in accordance with manufacturer's instructions. Fluorescence was measured by means of a fluormetric microtitre-plate reader (Titertex Fluorskan II) (excitation at 480 nm, emission at 520 nm). The […] were used to calculate the percentage of cellular proliferation in medium both alone and in the presence of serial dilutions of methanol and the macrolactin compounds. […] Proliferation was measured by means of the fluorescence-based test CyQUANT for determining viable cell counts. Table 5 illustrates the relative inhibition of proliferation as compared to a control culture comprising fresh medium without the addition of a macrolactin.

[8] = test system: Candida krusei DSM 6128; assay: MIC / MBC in liquid culture; type: cell-based; conditions: Pichia kudriavzevii
[9] = test system: B. cepacia SCV 141; assay: MIC / MBC in liquid culture; type: cell-based, Burkholderia cepacia; conditions: Burkholderia cepacia
Source text: (§2) 7-O-malonyl macrolactin A was not effective against some of the gram-negative bacteria tested by the inventors.

[10] = test system: B. cepacia WT139; assay: MIC / MBC in liquid culture; type: cell-based, Burkholderia cepacia
Source text: as §2

Compound: CC1CCC/C=C/C=C/C(O)CC(O)C/C=C\C=C\C(OC(=O)CC(=O)O)C/C=C/C=C\C(=O)O1 (stereo not shown) [7-O-malonyl macrolactin A]
- zone of inhibition at 50 µg/disc [1]: 26 mm
- zone of inhibition at 50 µg/disc [2]: 30 mm
- zone of inhibition at 50 µg/disc [3]: 40 mm
- zone of inhibition at 50 µg/disc [4]: 41 mm
- effect on cell division, electron microscope [5]: disrupted cell division
- growth inhibited by a factor [6]: ≤ 10
- Inhibition of proliferation ([7]; 62.5 μg/ml, CyQUANT test): practically complete inhibition of growth
- inhibition at 3.9 µg/mL ([7]; Homo sapiens, 120 h, compound concentration 3.9 μg/ml, 5 days): 0%
- inhibition at 7.8 µg/mL ([7]; Homo sapiens, 120 h, compound concentration 7.8 μg/ml, 5 days): 0%
- inhibition at 15.6 µg/mL ([7]; Homo sapiens, 120 h, compound concentration 15.6 μg/ml, 5 days): 0%
- inhibition at 31.25 µg/mL ([7]; Homo sapiens, 120 h, compound concentration 31.25 μg/ml, 5 days): 62%
- inhibition at 56.5 µg/mL ([7]; Homo sapiens, 120 h, compound concentration 56.5 μg/ml, 5 days): 93%
- inhibition at 125 µg/mL ([7]; Homo sapiens, 120 h, compound concentration 125 μg/ml, 5 days): 100%
- Inhibition of proliferation ([7]; compound concentration 15.6 μg/ml, 5 days): failed to inhibit the proliferation
- Inhibition of proliferation ([7]; compound concentration 31.25 μg/ml, 5 days): capable of inhibiting the proliferation
- MBC ([8]; DSM6128, read-out: MBC (minimal bacteriostatic or fungistatic concentration)): 32 µg/mL (≈ 65.5 µM)
- MIC ([8]; DSM6128, read-out: MIC (minimal inhibitory concentration)): > 128 µg/mL
- MBC ([9]; SCV141, read-out: MBC (minimal bacteriostatic or fungistatic concentration)): 32 µg/mL (≈ 65.5 µM)
- MIC ([9]; SCV141, read-out: MIC (minimal inhibitory concentration)): 128 µg/mL (≈ 262 µM)
- MBC (minimal bacteriostatic or fungistatic concentration) [10]: not observed
- MIC (minimal inhibitory concentration) [10]: >128 µg/mL
- MIC ([10]; Burkholderia cepacia, read-out: MIC (minimal inhibitory concentration)): > 128 µg/mL
